We go through 35 compounds from patent US20250388584A1, “TPK AGONIST AND METHOD FOR TREATING NEURODEGENERATIVE DISEASES USING SAME” (SHANGHAI RAISING PHARMACEUTICAL CO., LTD., priority 2022, published 2025).

The experiment has as its target TPK enzyme (Homo sapiens (Human), UniProt Q9H3S4). As to the kind of experiment: TPK enzyme activity test. In kind it is biochemical. Particulars: for Emax: calculated with the effect of DMSO on TPK enzyme activity as 100%; for pEC50: promoting effect on TPK enzyme activity.

Molecules are shown by their SMILES. pEC50: −log10 of the molar value. Structures can show the parent of a compound that is named as a salt. Where two headings read alike, the source gives them in different places.

Sequence of TPK enzyme (Q9H3S4 whole entry): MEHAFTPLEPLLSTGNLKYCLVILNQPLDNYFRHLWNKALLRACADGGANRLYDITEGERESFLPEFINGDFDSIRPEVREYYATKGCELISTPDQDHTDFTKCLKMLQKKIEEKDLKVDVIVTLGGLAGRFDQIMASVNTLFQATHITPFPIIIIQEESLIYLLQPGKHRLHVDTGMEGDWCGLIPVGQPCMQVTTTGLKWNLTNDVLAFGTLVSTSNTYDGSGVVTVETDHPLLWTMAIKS

The Emax is the size of the effect at its maximum, as opposed to the concentration needed. With `Cc1ccc2[nH]c3c(=O)n(CCC(=O)N4CCN(c5cccc(C(=O)O)c5)CC4)cnc3c2c1` [Compound 27, 3-(4-(3-(8-methyl-4-oxo-4,5-dihydro-3H-pyrimido[5,4-b]indol-3-yl)propanoyl)piperazin-1-yl)benzoic Acid], the Emax (read-out: Emax) was 122%.
By pEC50 is commonly meant the EC50 on a negative log10 scale, so that one unit is a factor of ten. In turn, `Cc1ccc2[nH]c3c(=O)n(CCC(=O)N4CCC(Cc5ccc(F)cc5)CC4)cnc3c2c1` [Compound 164] had a pEC50 of 5.63.
`O=C1CCCCN1CCCCCCN1CCSc2ccc(C(F)(F)F)cc21` [Compound 193, 1-(6-(6-(trifluoromethyl)-2,3-dihydro-4H-benzo[b][1,4]thiazin-4-yl)hexyl)piperidin-2-one] showed a pEC50 of 5.13. Besides, the Emax (read-out: Emax) is 178%.
For `COc1ccc2c(c1)N1CCN(c3ccccc3OC)CC1C(C(=O)NCCN1CCCCC1)C2` (stereo not drawn) [Compound 139] the same measures were 6.02 and 198%.
Consider `Cc1ccc2[nH]c3c(=O)n(CCCCN4CCN(c5cccc(C(F)(F)F)c5)CC4)cnc3c2c1` [Formate salt of 48, 8-methyl-3-(4-(4-(3-(trifluoromethyl)phenyl)piperazin-1-yl)butyl)-3,5-dihydro-4H-pyrimido[5,4-b]indol-4-one], for which the pEC50 was 5.97. Further, under “read-out: Emax”, the Emax is 210%.
As for `O=C(CCCn1cnc2c(c1=O)CCCc1ccccc1-2)N1CCN(c2cccc(C(F)(F)F)c2)CC1` [Compound 228, 3-(4-oxo-4-(4-(3-(trifluoromethyl)phenyl)piperazin-1-yl)butyl)-3,5,6,7-tetrahydro-4H-benzo[6,7]cyclohepta[1,2-d]pyrimidin-4-one], the pEC50 was 5.67. The Emax (read-out: Emax) was 148%.
`COc1ccc2c(c1)N1CCN(c3ccc(C)cc3)CC1C(C(=O)Nc1ccccc1)C2` (stereo not drawn) [Compound 140]: the Emax (read-out: Emax) is 187%.
`COc1ccc2[nH]c(=O)c3c(ccn3CCCN3CCN(c4cccc(C(F)(F)F)c4)CC3)c2c1` [Compound 210, 8-methoxy-3-(3-(4-(3-(trifluoromethyl)phenyl)piperazin-1-yl)propyl)-3,5-dihydro-4H-pyrrolo[2,3-c]quinolin-4-one] gave a pEC50 of 5.74. For the same compound, the Emax (read-out: Emax) was 166%.
With `Cc1ccc2[nH]c3c(=O)n(CC(=O)N4CCN(c5ccc(F)cc5)CC4)cnc3c2c1` [Compound 63], under “read-out: Emax”, the maximal response (Emax) was 148%.
`C[C@H](OC(C)(C)C)[C@@H](NC(=O)OCC1c2ccccc2-c2ccccc21)C(=O)O` [Compound 142] showed a pEC50 of 5.04. In addition, the Emax (read-out: Emax) was 224%.
For `Cc1ccc2c(c1)-c1nc(=O)n(CCCN3CCN(c4cccc(Cl)c4Cl)CC3)cc1CO2` [Compound 213, 3-(3-(4-(2,3-dichlorophenyl)piperazin-1-yl)propyl)-9-methyl-3,5-dihydro-2H-chromeno[4,3-d]pyrimidin-2-one] the same measures were 6.26 and 174%.
For `COc1ccc2[nH]c(=O)c3c(c2c1)CN(CCCN1CCN(c2cccc(Cl)c2Cl)CC1)C3` [Compound 235, 2-(3-(4-(2,3-dichlorophenyl)piperazin-1-yl)propyl)-8-methoxy-1,2,3,5-tetrahydro-4H-pyrrolo[3,4-c]quinolin-4-one], the negative logarithm of the EC50 (pEC50) was 6.24. Moreover, the Emax (read-out: Emax) was 137%.
For `Cc1ccc2c(c1)[nH]c1c(=O)n(CCC(=O)N3CCN(c4ccc(Cl)c(Cl)c4)CC3)cnc12` [Compound 19, 3-(3-(4-(3,4-dichlorophenyl)piperazin-1-yl)-3-oxopropyl)-7-methyl-3,5-dihydro-4H-pyrimido[5,4-b]indol-4-one], in that order: 5.70 and 145%.
For `Cc1ccc2nc3c(=O)n(CCC(=O)N4CCN(c5cccc(C(F)(F)F)c5)CC4)cnc3cc2c1` [Compound 138, 8-methyl-3-(3-oxo-3-(4-(3-(trifluoromethyl)phenyl)piperazin-1-yl)propyl)pyrimido[5,4-b]quinolin-4(3H)-one], in that order: 5.93 and 146%.
For `Cc1ccc2ncc3c(=O)n(CCCC(=O)N4CCN(c5cccc(Cl)c5Cl)CC4)cnc3c2c1` [Compound 217, 3-(4-(4-(2,3-dichlorophenyl)piperazin-1-yl)-4-oxobutyl)-9-methylpyrimido[5,4-c]quinolin-4(3H)-one], in that order: 5.83 and 153%.
In the case of `Cc1ccc2c(c1)[nH]c1c(=O)n(CCC(=O)N3CCN(c4cc(Cl)ccc4Cl)CC3)cnc12` [Compound 14, 3-(3-(4-(2,5-dichlorophenyl)piperazin-1-yl)-3-oxopropyl)-7-methyl-3,5-dihydro-4H-pyrimido[5,4-b]indol-4-one], the negative-log EC50 (pEC50) was 5.61. Further, the Emax (read-out: Emax) was 152%.
For `O=C(CCn1cnc2c([nH]c3ccc(C(F)(F)F)cc32)c1=O)N1CCN(Cc2cc(F)c(F)c(F)c2)CC1` [Compound 54, 3-(3-oxo-3-(4-(3,4,5-trifluorobenzyl)piperazin-1-yl)propyl)-8-(trifluoromethyl)-3,5-dihydro-4H-pyrimido[5,4-b]indol-4-one], in that order: 5.77 and 170%.
On to `O=C(CCn1cnc2c([nH]c3ccc(Br)cc32)c1=O)N1CCN(c2cccc(C(F)(F)F)c2)CC1` [Compound 12, 8-bromo-3-(3-oxo-3-(4-(3-(trifluoromethyl)phenyl)piperazin-1-yl)propyl)-3,5-dihydro-4H-pyrimido[5,4-b]indol-4-one], for which the Emax (read-out: Emax) was 205%.
Same read-out and setting: then `Cc1ccc2[nH]c3c(=O)n(CCC(=O)NCc4cn5ccccc5n4)cnc3c2c1` [Compound 134, N-(imidazo[1,2-a]pyridin-2-ylmethyl)-3-(8-methyl-4-oxo-4,5-dihydro-3H-pyrimido[5,4-b]indol-3-yl)propanamide], with 125%; and `Cc1ccc2c(c1)[nH]c1c(=O)n(CCC(=O)N3CCN(c4c(Cl)cccc4Cl)CC3)cnc12` [Compound 20, 3-(3-(4-(2,6-dichlorophenyl)piperazin-1-yl)-3-oxopropyl)-7-methyl-3,5-dihydro-4H-pyrimido[5,4-b]indol-4-one], with 121%.
For `Cc1ccc2[nH]c3c(=O)n(CCC(=O)N4CCN(c5cc(Cl)ccc5Cl)CC4)cnc3c2c1` [Compound 2, 3-(3-(4-(2,5-dichlorophenyl)piperazin-1-yl)-3-oxopropyl)-8-methyl-3,5-dihydro-4H-pyrimido[5,4-b]indol-4-one], the pEC50 was 5.69. Besides, under “read-out: Emax”, the Emax is 149%.
For `O=C1Cc2ccc(OCCCN3c4ccccc4Sc4ccccc43)cc2N1` [Compound 190, 6-(3-(10H-phenothiazin-10-yl)propoxy)indoline-2-one], in that order: 5.96 and 164%.
Regarding `COc1cc2[nH]c3c(=O)n(CC(=O)NCc4cccc(C(F)(F)F)c4)cnc3c2cc1OC` [Compound 113], the Emax (read-out: Emax) was 120%.
On to `Cc1ccc2[nH]c3c(=O)n(CCC(=O)NCc4cccc(C(F)(F)F)c4)ccc3c2c1` [Compound 67, 3-(6-methyl-1-oxo-1,9-dihydro-2H-pyrido[3,4-b]indol-2-yl)-N-(3-(trifluoromethyl)benzyl)propanamide], for which the pEC50 is 5.92. Also, the Emax (read-out: Emax) was 187%.
For `O=C(CCn1cnc2c([nH]c3ccccc32)c1=O)N1CCN(c2cccc(C(F)(F)F)c2)CC1` [Compound 5, 3-(3-oxo-3-(4-(3-(trifluoromethyl)phenyl)piperazin-1-yl)propyl)-3,5-dihydro-4H-pyrimido[5,4-b]indol-4-one] the same measures were 5.64 and 139%.
Take `Cc1ccc2[nH]c3c(=O)n(CCC(=O)NCc4cc(C(F)(F)F)cc(C(F)(F)F)c4)cnc3c2c1` [Compound 66, N-(3,5-bis(trifluoromethyl)benzyl)-3-(8-methyl-4-oxo-4,5-dihydro-3H-pyrimido[5,4-b]indol-3-yl)propanamide]: under “read-out: Emax”, the Emax was 138%.
`CC(C)c1ccc(CNC(=O)CCn2cnc3c([nH]c4ccc(F)cc43)c2=O)cc1` [Compound 118]: the Emax (read-out: Emax) was 122%.
Consider `Cc1ccc2[nH]c3c(=O)n(CCC(=O)N(C)CCNc4cccc(C(F)(F)F)c4)cnc3c2c1` [Compound 91, N-methyl-3-(8-methyl-4-oxo-4,5-dihydro-3H-pyrimido[5,4-b]indol-3-yl)-N-(2-((3-(trifluoromethyl)phenyl)amino)ethyl)propanamide], for which the pEC50 is 5.43. Further, the maximum response (Emax) (read-out: Emax) was 140%.
Consider `CC(=O)c1ccc(N2CCN(C(=O)CCn3cnc4c([nH]c5ccc(C)cc54)c3=O)CC2)cc1` [Compound 35], for which, for the setting “read-out: Emax”, the Emax was 126%.
Regarding `Cc1cccc2c1[nH]c1c(=O)n(CCC(=O)N3CCN(c4cccc(C(F)(F)F)c4)CC3)cnc12` [Compound 23, 6-methyl-3-(3-oxo-3-(4-(3-(trifluoromethyl)phenyl)piperazin-1-yl)propyl)-3,5-dihydro-4H-pyrimido[5,4-b]indol-4-one], for the setting “read-out: Emax”, the Emax is 121%.
For the compound `COC(=O)CCC(=O)OCCN1CCN(CCCN2c3ccccc3Sc3ccc(C(F)(F)F)cc32)CC1` [Compound 184, methyl (2-(4-(3-(2-(trifluoromethyl)-10H-phenothiazin-10-yl)propyl)piperazin-1-yl)ethyl) Succinate], the Emax is 176%.
Regarding `Cc1ccc2c(c1)[nH]c1c(=O)n(CCC(=O)N3CCN(c4cccc(C(F)(F)F)c4)CC3)cnc12` [Compound 22, 7-methyl-3-(3-oxo-3-(4-(3-(trifluoromethyl)phenyl)piperazin-1-yl)propyl)-3,5-dihydro-4H-pyrimido[5,4-b]indol-4-one], the maximal effect (Emax) (read-out: Emax) was 207%.
On to `Cc1ccc2[nH]c3c(=O)n(CCC(=O)NCc4cccc(C(F)(F)F)c4)cnc3c2c1` [Compound 97], for which the negative logarithm of the EC50 (pEC50) was 6.00. In addition, the Emax (read-out: Emax) was 178%.
`O=C1CCc2ccc(OCCCCCCN3c4ccccc4Sc4ccc(C(F)(F)F)cc43)cc2N1` [Compound 207, 7-((6-(2-(trifluoromethyl)-10H-phenothiazin-10-yl)hexyl)oxy)-3,4-dihydroquinolin-2(1H)-one]: the Emax (read-out: Emax) was 129%.
On the same count and under the same terms, then `Cc1ccc2oc3c(=O)n(CCC(=O)NCc4cccc(C(F)(F)F)c4)cnc3c2c1` [Compound 87, 3-(8-methyl-4-oxobenzofuro[3,2-d]pyrimidin-3(4H)-yl)-N-(3-(trifluoromethyl)benzyl)propanamide], with 146%.
